Measured values reported in PubChem BioAssay (NCI).
Several values for one entry are separate records, joined by “and”; a condition that tells them apart may be missing. Equal entries are not always repeated.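 Tested at 5 concentrations; 48 h exposure; 96-well plates; endpoints linearly interpolated, else capped at highest concentration. Here, GI50 denotes the concentration required for 50% inhibition of growth. TGI denotes the concentration required for complete inhibition of growth.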

Experiments:
Test in all cases: growth of human tumour cells (NCI), 48 h
A498 renal = system: A498 renal
IGROV1 ovarian = system: IGROV1 ovarian
NCI/ADR-RES ovarian = system: NCI/ADR-RES ovarian
OVCAR-4 ovarian = system: OVCAR-4 ovarian
OVCAR-8 ovarian = system: OVCAR-8 ovarian
PC-3 prostate = system: PC-3 prostate
SK-MEL-2 melanoma = system: SK-MEL-2 melanoma
SK-MEL-5 melanoma = system: SK-MEL-5 melanoma
UACC-62 melanoma = system: UACC-62 melanoma
NCI-H522 lung = system: NCI-H522 lung

SMILES	TGI (A498 renal) [µM]	TGI (IGROV1 ovarian) [µM]	TGI (NCI/ADR-RES ovarian) [µM]	TGI (OVCAR-4 ovarian) [µM]	TGI (OVCAR-8 ovarian) [µM]	TGI (PC-3 prostate) [µM]	TGI (SK-MEL-2 melanoma) [µM]	TGI (SK-MEL-5 melanoma) [µM]	TGI (UACC-62 melanoma) [µM]	TGI (NCI-H522 lung)	GI50 (IGROV1 ovarian) [µM]	GI50 (NCI-H522 lung) [µM]	GI50 (NCI/ADR-RES ovarian) [µM]	GI50 (OVCAR-4 ovarian) [µM]	GI50 (OVCAR-8 ovarian) [µM]	GI50 (PC-3 prostate) [µM]	GI50 (SK-MEL-2 melanoma) [µM]	GI50 (SK-MEL-5 melanoma) [µM]	GI50 (UACC-62 melanoma) [µM]	GI50 (A498 renal) [µM]
O=C(c1ccc2ccccc2c1O)N1CCCCC1	> 100	> 100	> 100	> 100	> 100	> 100	> 100	> 100	> 100											
O=C(O)CN(c1ccccc1)S(=O)(=O)c1ccc(NC(=O)c2ccccc2)cc1	> 100	> 100		> 100	> 100		> 100		> 100	> 100 µM										
CC/C(Cc1ccccc1)=C(\c1ccc(OCCN2CCCCCC2)cc1)c1ccc(OC(=O)NCc2ccccc2)cc1		8.82	12.3	6.03	4.96	8.36	17.7	2	13	7.35 µM	2.31	1.9	3.9	1.61	1.67	2.3	8.65	1	6.38	
CCCCCCCCCCCOC(=S)NC(C)C	39	49.9		52	31.7		40	31.2	31.1	39.7 µM										
Nc1ncnc2c1ncn2C1OC(COP(=O)(O)CP(=O)(O)O)C(O)C1O (centres undefined)	> 100	> 100	> 100		> 100	> 100	> 100	> 100	> 100	> 100 µM										
CC1=NN(C(=O)c2ccccc2O)C(=O)/C1=C/c1ccc([N+](=O)[O-])cc1				> 100	> 100	> 100		51.5	2.16	7.06 µM and 12.9 µM	0.44	2.03	0.449	0.783	1.44	0.371	0.97	2.21		
N=C(c1ccccc1)N(c1ccccc1)c1ccccc1				> 100	> 100		> 100			> 100 µM										
Cc1ccc(C(=O)O/N=C2/CCCC/C2=C\c2ccccc2)cc1		> 100		> 100	> 100		> 100	> 100	> 100	31.7 µM										
O=C(CC1=Nc2nnc(-c3nnc4n3C(=O)C(CC(=O)c3cccnc3)=N4)n2C1=O)c1cccnc1	> 100	> 100		> 100			> 100	> 100	> 100	> 100 µM										
CCC1(C)NN=c2s/c(=C/c3ccc(OC)cc3)c(=O)n2N1 (centres undefined)		> 100		> 100	> 100		> 100	> 100	> 100	> 100 µM										
CCOc1ccccc1NC(=O)CCC(=O)OC	> 100	> 100		> 100	> 100		> 100	> 100	> 100	> 100 µM										
CCSc1nnc2c(-c3ccccc3)n[nH]c2n1		> 100	> 100	> 100	> 100	> 100	> 100	> 100	> 100	> 100 µM										
N#Cc1cc(C#N)c(Cl)nc1N		> 10	> 10	> 10	> 10	> 10	> 10	> 10	> 10											
NNC(=S)N/N=C(\CCCC(=O)NCCc1ccccc1)CC(=O)c1ccccc1	> 100	> 100		> 100	> 100		> 100	> 100	> 100	> 100 µM										
CC1CC2C3CC(F)C4=CC(=O)C=CC4(C)C3(F)C(O)CC2(C)C1(O)C(=O)COC(=O)C(C)(C)C (centres undefined)		> 100		> 100			> 100	> 100	> 100	> 100 µM										
CC1=C([Se]CC(OC(=O)[C@@H](CSSC(C)(C)C)NC(=O)OC(C)(C)C)C(=O)NC(C)(C)C)C(=O)c2ccccc2C1=O (some centres undefined)	3.83	2.36		2.87	2.73		2.88	2.94	2.84	2.99 µM	1.15	1.55		1.49	1.36		1.47	1.59	1.51	1.42
O=C(O)c1ccccc1Cc1ccco1	> 100	> 100		> 100	> 100		> 100	> 100	> 100	> 100 µM										
O=C1OC(=O)c2c1c(-c1ccccc1)cn2-c1ccc(Cl)cc1		> 100			> 100		> 100	27.9		> 100 µM										
COc1ccc(/C(=N/NC(N)=O)C2(O)C(=O)Nc3ccc([N+](=O)[O-])cc32)cc1 (centres undefined)	87.5	94.7		27.1	47.7		40.2	77.2	43.6	41.9 µM										
Nc1nc(CCC(=O)Nc2cccc(C(F)(F)F)c2)cc(-c2cccc3ccccc23)n1	> 100	> 100		> 100	> 100		> 100	> 100	> 100	> 100 µM										
N#C/C(=C\c1ccccc1O)C(N)=O	> 100	> 100		> 100	> 100		> 100	> 100	> 100	> 100 µM										
CCOc1ccc(NC(=O)CC2SC(=Nc3ccc(Cl)cc3)NC2=O)cc1 (centres undefined)	> 100	> 100		> 100	> 100		> 100	> 100	> 100											
CC[P+](C)(Cc1ccccc1)c1ccccc1 (centres undefined)	> 100	> 100		> 100	> 100		> 100	> 100	> 100	> 100 µM										
c1ccc(SC2(Sc3ccccc3)CCCC2)cc1	> 100			> 100	> 100		> 100	> 100	> 100	> 100 µM										
